Measured values reported in the supplement of paper PMC10883282.

Tests used:
Experiment in all cases: relative viability vs DMSO control (72 h) (fraction); higher = more viable cells
SW684 = tested on: SW684
Summary of the method: (§1)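 Plates held 72 h at 37 °C and 5% CO2 contained sarcoma cell lines seeded in 384-well format to reach 80–90% confluence, plus 2.5 µl of serially diluted compound added after 24 h. Source plate concentrations ran from 10 mM to 0.0002 mM, with 0.1% DMSO as vehicle and a 5 µM positive control. Percent growth from ATPLite readings, averaged over up to triplicate wells, gave relative viability. Values were rescaled with 1 as full and 0 as none.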

RD-ES = tested on: RD-ES
Summary of the method: as §1

SYO-1 = tested on: SYO-1
Summary of the method: as §1

KHOS-NP = tested on: KHOS-NP
Summary of the method: as §1

HT1080 = tested on: HT1080
Summary of the method: as §1

CC#CC(=O)N1CCC[C@H]1c1nc(-c2ccc(C(=O)Nc3ccccn3)cc2)c2c(N)nccn12 [Acalabrutinib]
relative viability
Settings	HT1080	KHOS-NP	RD-ES	SW684	SYO-1
0.00017 µM	1.03	1.03	0.9637	1.11	0.958
0.00051 µM	1.05	1.03	0.979	1.14	0.946
0.00152 µM	1.05	1.04	0.998	1.09	0.941
0.00457 µM	1.036	1.04	0.982	1.13	0.937
0.01372 µM	1.01	1.02	1	1.13	0.945
0.04115 µM	1.029	1.03	0.99	1.1	0.932
0.1235 µM	1.04	1.03	0.992	1.11	0.94
0.3704 µM	1.07	1.05	1.021	1.15	0.934
1.111 µM	1.03	1.04	1.02	1.14	0.928
3.333 µM	1.08	1.08	0.974	1.12	0.948
10 µM	1.04	1.08	0.9313	1.08	0.898

N#CC1(c2ccc(NC(=O)c3cccnc3NCc3ccncc3)cc2)CCCC1 [Apatinib]
relative viability
Settings	HT1080	KHOS-NP	RD-ES	SW684	SYO-1
0.00017 µM	1.02	1.03	0.936	1.04	1.01
0.00051 µM	1.05	1.04	0.968	1.1	1.03
0.00152 µM	1.05	1.05	0.979	1.06	1.01
0.00457 µM	1.081	1.05	0.946	1.08	1.02
0.01372 µM	1.07	1.06	0.942	1.09	1.01
0.04115 µM	1.05	1.08	0.961	1.09	1.02
0.1235 µM	1.069	1.04	0.955	1.1	0.957
0.3704 µM	1.04	1.027	0.902	1.05	0.91
1.111 µM	1.03	1	0.91	1.07	0.747
3.333 µM	1.04	0.918	0.892	1.05	0.678
10 µM	0.9829	0.726	0.798	1.02	0.552

O=C(Nc1ccc(OC(F)(F)Cl)cc1)c1cnc(N2CC[C@@H](O)C2)c(-c2cc[nH]n2)c1 [Asciminib]
relative viability
Settings	HT1080	KHOS-NP	RD-ES	SW684	SYO-1
0.00017 µM	0.999	1.04	0.944	1.09	0.92
0.00051 µM	1.06	1.06	0.942	1.06	0.91
0.00152 µM	1	1.06	0.927	1.09	0.919
0.00457 µM	0.999	1.04	0.926	1.09	0.927
0.01372 µM	0.968	1.061	0.908	1.08	0.904
0.04115 µM	1	1.04	0.895	1.102	0.893
0.1235 µM	1.03	1.06	0.915	1.16	0.866
0.3704 µM	1	1.025	0.889	1.23	0.844
1.111 µM	0.998	0.998	0.852	1.18	0.813
3.333 µM	0.978	0.901	0.849	1.11	0.76
10 µM	0.916	0.695	0.748	0.627	0.6731

CNC(=O)c1ccccc1Sc1ccc2c(/C=C/c3ccccn3)n[nH]c2c1 [Axitinib]
relative viability
Settings	HT1080	KHOS-NP	RD-ES	SW684	SYO-1
0.00017 µM	1.1	1.08	0.962	1.17	1
0.00051 µM	1.06	1.12	0.92	1.17	0.973
0.00152 µM	1.1	1.12	0.938	1.21	0.9673
0.00457 µM	1.1	1.12	0.947	1.188	0.913
0.01372 µM	1.13	1.12	0.94	1.19	0.841
0.04115 µM	1.11	1.106	0.963	1.15	0.742
0.1235 µM	1.08	1.07	0.938	1.14	0.662
0.3704 µM	1	1.01	0.871	1.12	0.485
1.111 µM	1.04	0.986	0.85	1.14	0.422
3.333 µM	0.979	0.827	0.729	0.978	0.141
10 µM	0.388	0.405	0.0832	0.493	0.0669

Cc1cc2c(F)c(Oc3ncnn4cc(OC[C@@H](C)O)c(C)c34)ccc2[nH]1 [Brivanib]
relative viability
Settings	HT1080	KHOS-NP	RD-ES	SW684	SYO-1
0.00017 µM	1.04	1.04	0.961	1.1	0.941
0.00051 µM	1.026	1.05	0.966	1.11	0.936
0.00152 µM	1.05	1.05	0.985	1.12	0.931
0.00457 µM	1.06	1.04	1	1.13	0.935
0.01372 µM	1.07	1.06	0.996	1.146	0.919
0.04115 µM	1.02	1.058	1	1.15	0.925
0.1235 µM	1.02	1.06	1.01	1.12	0.921
0.3704 µM	1.06	1.07	0.994	1.15	0.906
1.111 µM	1.05	1.05	1	1.12	0.861
3.333 µM	1.07	1.07	0.988	1.16	0.792
10 µM	1.01	0.964	0.947	1.21	0.609

CO[C@H]1C[C@@H]2CC[C@@H](C)[C@@](O)(O2)C(=O)C(=O)N2CCCC[C@H]2C(=O)O[C@H]([C@H](C)C[C@@H]2CC[C@@H](OCCO)[C@H](OC)C2)CC(=O)[C@H](C)/C=C(\C)[C@@H](O)[C@@H](OC)C(=O)[C@H](C)C[C@H](C)/C=C/C=C/C=C/1C [Certican]
relative viability
Settings	HT1080	KHOS-NP	RD-ES	SW684	SYO-1
0.00017 µM	1.04	1.05	0.967	1.08	0.904
0.00051 µM	1.04	1.07	0.939	1.125	0.876
0.00152 µM	1.09	1.07	0.843	1.069	0.852
0.00457 µM	1.09	1.05	0.807	1.03	0.84
0.01372 µM	1.08	1.03	0.772	0.914	0.808
0.04115 µM	0.985	1	0.728	0.829	0.788
0.1235 µM	0.998	1.02	0.676	0.844	0.755
0.3704 µM	1.02	1.04	0.658	0.813	0.755
1.111 µM	1.01	1.03	0.598	0.83	0.729
3.333 µM	1.01	1.02	0.552	0.872	0.738
10 µM	0.922	0.824	0.488	0.807	0.742

CC1(COc2ccc3c(c2)ncn3-c2ccc3cccc(N4CCC(N)CC4)c3n2)COC1 [Crenolanib]
relative viability
Settings	HT1080	KHOS-NP	RD-ES	SW684	SYO-1
0.00017 µM	1.01	1.05	0.949	1.02	0.974
0.00051 µM	1.03	1.03	0.958	1.05	0.983
0.00152 µM	1.04	1.02	0.957	1.08	0.996
0.00457 µM	1.03	1.05	0.975	1.04	0.998
0.01372 µM	1.02	1.03	0.958	1.04	0.953
0.04115 µM	1.02	1.01	0.969	1.05	0.867
0.1235 µM	1.02	0.998	0.97	1.08	0.785
0.3704 µM	1.05	0.946	0.994	1.1	0.787
1.111 µM	1.04	0.765	0.915	1.15	0.659
3.333 µM	0.811	0.605	0.359	0.978	0.307
10 µM	0.0545	0.511	0.255	0.423	-0.023
